Results on five compounds are retold here after patent US9572816B2, “Method of treatment of disease” (TECHNION RESEARCH AND DEVELOPMENT FOUNDATION LTD., priority 2012, dated 2017).

The test system of one assay is development of cataract. The following applies: clinical studies, reported in the literature; cited from earlier work.
Assay [1] relates to rat model of STZ-induced diabetes. Nature of the assay: Cataract by lens opacity (slit-lamp biomicroscope) in rat model of STZ-induced diabetes. The class given is in vivo, Sprague Dawley rats. The settings on record: 7 weeks. As for the experimental part:
(§1) Eight to ten-week old male Sprague Dawley rats were used in the model. Rat handling was performed according to guidelines of the National Institute of Health (NIH) and the Association for Assessment and Accreditation of Laboratory Animal Care (AAALAC). Diabetes was induced by intraperitoneal injection of 50 mg/kilogram (mg/kg) STZ (in 0.1 molar citrate buffer), which is a dose generally sufficient to destroy all insulin-producing beta cells and induce a diabetic disease-like state. Two weeks later, glucose levels were measured and rats displaying a level lower than 200 mg per deciliter (dL) were excluded from the study. The remaining rats were randomly divided into 3 groups (according to body weight and serum glucose levels): a control group, a corrole group and an LPA group. Each group received a 7-week course of treatment. The control group (13 rats) received water with no active ingredient. The corrole group (14 rats) received 20 mg/kg/day of the corrole designated 1-Fe. 1-Fe was synthesized using the procedure described in Mahammed et al. (Mahammed, Goldberg, & Gross, 2001). […]
Cataract was evaluated a day before termination of the trial in live rats by measurement of opacities of the rat's lenses of each eye with a slit-lamp biomicroscope following the application of tropicamide eye drops. […]
A rat having a score in at least one eye of 1 or higher was considered to have developed a cataract. The percentage of rats in each group having a cataract (cataract incidence) as determined by opacity measurements for each group is shown in FIG. 1A. […]
The degree of cataract for both eyes as determined by averaging each group's cataract scoring of both eyes of each rat as determined by opacity measurement is shown in FIG. 1B.
As cataract may develop at a different rate in each of the animals' eyes, the degree of cataract for the rats' worse eye was evaluated. The degree of cataract for the rats' worse eye was determined by averaging each group's cataract scoring of each animal's worse eye as determined by opacity measurement, and is shown in FIG. 1C. […]

The test system is the same in assay [2]. Nature of the assay: Cataractous damage by histological examination (H&E) of lenses in rat model of STZ-induced diabetes. The class given is in vivo, Sprague Dawley rats. The following applies: 7 weeks. As for the experimental part: as §1, with “treatment.” for “treatment. The control group (13 rats) received water with no active ingredient. The corrole group (14 rats) received 20 mg/kg/day of the corrole designated 1-Fe. 1-Fe was synthesized using the procedure described in Mahammed et al. (Mahammed, Goldberg, & Gross, 2001).”
The development of cataractous damage was further evaluated by histological examination. […]
A rat having a score in at least one eye of 1 or higher was considered to have suffered a cataractous damage. The percentage of rats in each group having a cataractous damage (cataract damage incidence) as determined by histological examination of lenses for each group is shown in FIG. 1D.
The degree of cataractous damage for both eyes as determined by averaging each group's cataract scoring of both eyes of each rat as determined by histological examination is shown in FIG. 1E. […]

Assay [3] in a line: Body weight in rat model of STZ-induced diabetes. The class given is in vivo, Sprague Dawley rats. The following applies: STZ-diabetic rats, 7-week treatment. As for the experimental part: as §1, with “2001). The LPA group (13 rats) received 50 mg/kg/day LPA. LPA was formulated for administration by dissolving in 1 millimolar sodium hydroxide (NaOH) which was then brought to a pH of 7.5.” for “2001).”

In assay [4] the test system is rat model of STZ-induced diabetes. Kind of assay: Creatinine clearance rate (CrCl), kidney damage in rat model of STZ-induced diabetes. The class given is in vivo. The following applies: after 7 weeks of treatment. The protocol:
as §1, with “treatment.” for “treatment. The control group (13 rats) received water with no active ingredient. The corrole group (14 rats) received 20 mg/kg/day of the corrole designated 1-Fe. 1-Fe was synthesized using the procedure described in Mahammed et al. (Mahammed, Goldberg, & Gross, 2001).”
A rat model was performed as in example 1, but rather than testing for eye damage, blood testing was used to test for creatinine levels. […] Creatinine clearance rate (CrCl), an established measure for evaluating renal function, was calculated for rats in all groups of the trial by dividing the amount of creatinine in the urine (mg/minute) by its concentration in the serum (mg/ml).
CrCl was measured: a) before induction of diabetes; b) 2 weeks later when the treatment commenced; and c) following 7 weeks of treatment (9 weeks from STZ injection).

Another assay relates to DN in a rat model. The following applies: administered in levels sufficient to be present in the kidney; cited from earlier work.

As for `O=C1O[C@H]([C@@H](O)CO)C(O)=C1O` [vitamin C], the “Effect on the development of cataract” value in the assay with development of cataract is given as “no significant effect”.

For the compound `O=C(O)CCCCC1CCSS1` (stereo not drawn) [LPA, alpha lipoic acid], the “Reduction in degree of cataract, both eyes (opacity score 0-4), relative to control group” value in assay [1] (1-Fe 20 mg/kg/day (p=0.014), LPA 50 mg/kg/day (p=0.1)) is listed as 28%. Moreover, in assay [1] (LPA 50 mg/kg/day), the “Degree of cataract in worse eye relative to control group (in words)” value was “not significantly reduced”. Further, the “Effect on cataract incidence (opacity measurement)” value in assay [1] (relative to control group, LPA 50 mg/kg/day) is on record as “did not have a significant effect”. The “Reduction in degree of cataractous damage, both eyes (histology score 0-4), relative to control group” value in assay [2] (1-Fe 20 mg/kg/day, LPA 50 mg/kg/day) is 32%. For the same compound, the “Cataract damage incidence by histological examination, relative to control group” value in assay [2] (corrole p=0.073) is listed as “minimal”. The “Body weight change during the treatment phase” value in assay [3] was “significant weight loss”. In assay [4] (STZ-diabetic rats, 1-Fe 20 mg/kg/day, LPA 50 mg/kg/day), this compound had a CrCl of 1.36 mL/min. Moreover, the “Increase in creatinine clearance relative to the control group” value in assay [4] (1-Fe p=0.027, LPA p=0.078) amounted to 89%.

Take `COc1cc(/C=C/C(=O)CC(=O)/C=C/c2ccc(O)c(OC)c2)ccc1O` [curcumin]: the “Treating DN in a rat model” value in the assay on DN in a rat model was “not successful”.

With `CC1=C(/C=C/C(C)=C/C=C/C(C)=C/C=C/C=C(C)/C=C/C=C(C)/C=C/C2=C(C)CCCC2(C)C)C(C)(C)CCC1` [beta-carotene], the “Effect on the development of cataract” value in the assay on development of cataract is “no significant effect”.

For vitamin E, in the assay with development of cataract, the “Effect on the development of cataract” value was “no significant effect”.
